Experimental data reported in patent publication US9908877B2, “Imidazo[1,5-a]pyridinium ion fluorophores, and methods of making and using the same” (Indiana University Research and Technology Corporation, priority 2013, dated 2018).
Values joined by “and” are separate entries in the source; they are usually repeats but may differ in a detail not shown here. Equal values may be shown once.

How the values were obtained:
[1] = Fluorescence quantum yield, integrating sphere; format: physicochemical
Procedure: Method for Determining Quantum Yield
Quantum yield is determined using an integrating sphere attached to a QM-4-CW Spectrofluorometer using FeliX32 software (Photon Technology International).
The compounds were analyzed at 298° K according to the Method for Obtaining Ultraviolet-Visible Light Spectrum (30 μM acetonitrile) to obtain the maximum absorbance wavelength (λabs,max), Method for Obtaining Fluorescence Emission Spectrum (30 μM acetonitrile) to obtain the maximum emission wavelength (λem,max) and Method for Determining Quantum Yield (ΦF) (30 μM acetonitrile) at the concentration, in the solvent, and with the counter ion indicated in Table 1. The compounds included hydrogen at each R group that is not otherwise specified.
Compounds 6, 7, 9, 11-14 and 21 were analyzed according to: the Method for Obtaining Ultraviolet-Visible Light Spectrum to obtain the maximum absorbance wavelength (λabs,max), the Method for Obtaining Fluorescence Emission Spectrum to obtain the maximum emission wavelength (λem,max), and the Method for Determining Quantum Yield (ΦF) in the solvent and with the counter ion indicated in Table 3.

[2] = Fluorescence response to trifluoroacetic acid / DBU in acetonitrile; format: physicochemical
Procedure: A 30 μM solution of Compound 6 in acetonitrile was prepared by adding 99 μL of a stock solution of 3.04 mM Compound 6 in methanol to 10 mL of acetonitrile. An initial fluorescence emission spectrum of the solution was obtained and is illustrated by curve (i) in FIG. 1A.
A series of approximately 13.8 μL aliquots of trifluoroacetic acid (TFA) were then added to the 30 μM solution of Compound 6 until a total concentration of 60.0 mM of TFA was present in the solution. (The total amount of TFA present in the solution corresponded to 2000 equivalents of acid per equivalent of Compound 6.) The fluorescence emission spectrum of the resulting solution was obtained and is illustrated by curve (ii) in FIG. 1A.
A base, i.e., 1,8-diazabicyclo[5.4.0]undec-7-ene (DBU), was then added to the solution to neutralize the acid until a concentration of 90 mM DBU was obtained. The fluorescence emission spectrum of the resulting solution was obtained and is illustrated by curve (iii) in FIG. 1A. The fluorescence emission intensity at λem,max=565 nm increased as the amount of base present in the system increased and the fluorescence emission intensity at λem,max=405 nm decreased as the amount of base present in the system increased, which reflected Compound 6's ratiometric response to the changing base concentration in acetonitrile.
A 30 μM solution of Compound 7 in acetonitrile was prepared by adding 84 μL of a stock solution of 3.58 mM Compound 7 in methanol to 10 mL of acetonitrile. The emission spectrum of the solution was then obtained and is illustrated by curve (i) in FIG. 1B.
A series of approximately 13.8 μL aliquots of TFA were then added to the 30 μM solution of Compound 7 until a total concentration of 60.0 mM TFA was present in the solution (which corresponded to 2000 equivalents of acid per equivalent of Compound 7). The fluorescence emission spectrum of the solution was obtained and is illustrated by curve (ii) in FIG. 1B.
After the 60 mM TFA concentration was achieved, DBU was gradually added to the solution until a total concentration of 90 mM DBU was present in the solution. The fluorescence spectrum of the solution was obtained and is illustrated by curve (iii) in FIG. 1B.
An aliquot of 50 μL of trifluoroacetic acid was then added to the system, and the fluorescence emission spectrum was obtained and is illustrated by the curved line with a peak at 360 nm in FIG. 6A.
Compound 10 was placed in neat acetonitrile and its emission spectrum was monitored as trifluoroacetic acid was added to the acetonitrile in incremental amounts to achieve a solution that included an acid concentration ranging from 0 to 0.2 M. After each acid addition the sample was excited with radiation of a wavelength 340 nm, and its fluorescence emission spectrum was monitored. The results are illustrated in FIG. 7A.
The solution of Compound 10 in acetonitrile was titrated with trifluoroacetic acid (TFA). […] The first stage, which occurred with the addition of the initial aliquots of TFA, was a slight increase intensity at 580 nm, as illustrated in FIG. 7A. As more TFA was added to the system, a second transition occurred in which the emission at 580 nm began to decrease and as the emission at 400 nm began to increase, as illustrated in FIG. 7B. A plot of the emission intensity at 580 nm versus pH and at 400 nm versus pH is illustrated in FIG. 7C.
Compounds 10, 11, and 12 were then each individually added, at a concentration of 30 μM, to acetonitrile and the emission spectrum of each was monitored. The compounds emitted at 600 nm with an intensity of about 7.57×10^5 arbitrary units (a.u.) in neat acetonitrile. […] FIG. 8B illustrates the emission properties of Compound 12.

- […]F (quantum yield) ([1]; H2O (pH not given), 30 μM): 16%
- […]F (quantum yield) ([1]; H2O pH = 2.5, 30 μM): 31%
- […]F (quantum yield) ([1]; MeCN + 13.8 uL TFA, 30 μM): 49%
- […]F (quantum yield) ([1]; MeCN, 30 μM): 59%
- λem,max (fluorescence emission) ([2]; 30 μM in acetonitrile in the absence of trifluoroacetic acid): 565 nm
- λem,max (fluorescence emission) ([2]; 30 μM in acetonitrile in the presence of trifluoroacetic acid (60.0 mM TFA)): 400 nm and 405 nm
SMILES: CCN(CC)c1ccc(-c2c3cccc[n+]3cn2-c2ccc(OC)cc2)cc1.[Cl-] [Compound 6, 1-(4-(diethylamino)phenyl)-2-(4-methoxyphenyl)-2H-imidazo[1,5-a]pyridin-4-ium chloride]
